Target: T1, autotaxin (ATX) (Homo sapiens, UniProt Q13822)
T1 construct: conditioned medium from the human melanoma cell line, MDA-MB-4355, which endogenously expresses autotaxin; host or cells: MDA-MB-435S human melanoma cells; serum-free conditioned medium, concentrated 20-fold
Assay: Native Autotaxin Choline Release Assay
Type: biochemical
Conditions: autotaxin in conditioned medium from human melanoma cell line; choline released from LPC; read-out: MDA-MB-435S Assay IC50
Method in brief: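 Native ATX from conditioned serum-free, phenol-red-free DMEM of confluent cells cultured 48 h; LPC as substrate. Released choline detected with choline oxidase/peroxidase/4-aminoantipyrine colour mix in 50 mM Tris pH 8, 10 min at 37 °C, absorbance 555 nm; choline quantified against standard curve, equated to LPA formed.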

| Compound | IC50 [nM] |
| --- | --- |
| CCn1cc(-n2c(C)c(Sc3cccc(C(=O)NS(C)(=O)=O)c3)c3ccc(Cl)c(F)c32)cn1 [Compound 3-29, N-{3-[6-Chloro-1-(1-ethyl-1H-pyrazol-4-yl)-7-fluoro-2-methyl-1H-indol-3-ylsulfanyl]-benzoyl}-methanesulfonamide] | < 300 |
| CCn1cc(-n2c(C)c(Sc3ccc(CC(=O)O)cc3)c3ccc(Cl)cc32)cn1 [Compound 3-30, {4-[6-Chloro-1-(1-ethyl-1H-pyrazol-4-yl)-2-methyl-1H-indol-3-ylsulfanyl]-phenyl}-acetic acid] | < 300 |
| CCn1cc(-n2c(C)c(Sc3cccc(C(=O)O)c3)c3ccc(C#N)cc32)cn1 [Compound 3-31, 3-[6-Cyano-1-(1-ethyl-1H-pyrazol-4-yl)-2-methyl-1H-indol-3-ylsulfanyl]-benzoic acid] | < 300 |
| Cc1ccc(-n2cc(-n3c(C)c(Sc4cccc(C(=O)O)c4)c4ccc(Cl)c(F)c43)cn2)cc1 [Compound 3-32, 3-[6-Chloro-7-fluoro-2-methyl-1-(1-p-tolyl-1H-pyrazol-4-yl)-1H-indol-3-ylsulfanyl]-benzoic acid] | < 300 |
| Cc1c(Sc2cccc(C(=O)O)c2)c2ccc(Cl)c(F)c2n1-c1cnn(-c2cccc(Cl)c2)c1 [Compound 3-33, 3-{6-Chloro-1-[1-(3-chloro-phenyl)-1H-pyrazol-4-yl]-7-fluoro-2-methyl-1H-indol-3-ylsulfanyl}-benzoic acid] | < 300 |
| Cc1c(Sc2cccc(C(=O)O)c2)c2ccc(Cl)c(F)c2n1-c1cnn(CC2CC2)c1 [Compound 3-34, 3-[6-Chloro-1-(1-cyclopropylmethyl-1H-pyrazol-4-yl)-7-fluoro-2-methyl-1H-indol-3-ylsulfanyl]-benzoic acid] | < 300 |
| Cc1c(Sc2cccc(C(=O)O)c2)c2ccc(Cl)c(F)c2n1-c1cnn(C2CCCC2)c1 [Compound 3-35, 3-[6-Chloro-1-(1-cyclopentyl-1H-pyrazol-4-yl)-7-fluoro-2-methyl-1H-indol-3-ylsulfanyl]-benzoic acid] | < 300 |
| Cc1c(Sc2cccc(C(=O)O)c2)c2ccc(Cl)c(F)c2n1-c1cnn(C2CCC2)c1 [Compound 3-36, 3-[6-Chloro-1-(1-cyclobutyl-1H-pyrazol-4-yl)-7-fluoro-2-methyl-1H-indol-3-ylsulfanyl]-benzoic acid] | < 300 |
| CCCn1cc(-n2c(C)c(Sc3cccc(CC(=O)O)c3)c3ccc(Cl)c(F)c32)cn1 [Compound 3-37, {3-[6-chloro-7-fluoro-2-methyl-1-(1-propyl-1H-pyrazol-4-yl)-1H-indol-3-ylsulfanyl]-phenyl}-acetic acid] | < 300 |
| CCn1cc(-n2c(C)c(Sc3cccc(C(=O)NS(=O)(=O)c4ccccc4)c3)c3ccc(Cl)c(F)c32)cn1 [Compound 3-42, N-{3-[6-Chloro-1-(1-ethyl-1H-pyrazol-4-yl)-7-fluoro-2-methyl-1H-indol-3-ylsulfanyl]-benzoyl}-benzenesulfonamide] | < 300 |
| Cc1c(Sc2cccc(C(=O)O)c2)c2ccc(Cl)c(F)c2n1-c1cnn(C2CC2)c1 [Compound 3-47, 3-[6-Chloro-1-(1-cyclopropyl-1H-pyrazol-4-yl)-7-fluoro-2-methyl-1H-indol-3-ylsulfanyl]-benzoic acid] | < 300 |
| COc1ccc(Cn2cc(-n3c(C)c(Sc4cccc(C(=O)O)c4)c4ccc(Cl)c(F)c43)cn2)cc1 [Compound 3-48, 3-{6-Chloro-7-fluoro-1-[1-(4-methoxy-benzyl)-1H-pyrazol-4-yl]-2-methyl-1H-indol-3-ylsulfanyl}-benzoic acid] | < 300 |
| Cc1c(Sc2cccc(C(=O)O)c2)c2ccc(Cl)c(F)c2n1-c1cn[nH]c1 [Compound 3-49, 3-[6-Chloro-7-fluoro-2-methyl-1-(1H-pyrazol-4-yl)-1H-indol-3-ylsulfanyl]-benzoic acid] | < 300 |
| Cc1c(Sc2cccc(C(=O)O)c2)c2ccc(Cl)c(F)c2n1-c1cnn(CCO)c1 [Compound 3-50, 3-{6-Chloro-7-fluoro-1-[1-(2-hydroxy-ethyl)-1H-pyrazol-4-yl]-2-methyl-1H-indol-3-ylsulfanyl}-benzoic acid] | < 300 |
| CCn1cc(-n2c(C)c(Sc3cccc(C(=O)NS(=O)(=O)C4CC4)c3)c3ccc(Cl)c(F)c32)cn1 [Compound 3-51, cyclopropanesulfonic acid 3-[6-chloro-1-(1-ethyl-1H-pyrazol-4-yl)-7-fluoro-2-methyl-1H-indol-3-ylsulfanyl]-benzoylamide] | < 300 |
| CCn1cc(-n2c(C)c(Sc3cccc(C(=O)O)c3)c3ccc(Cl)c(Cl)c32)cn1 [Compound 3-52, 3-[6,7-Dichloro-1-(1-ethyl-1H-pyrazol-4-yl)-2-methyl-1H-indol-3-ylsulfanyl]-benzoic acid] | < 300 |
| CCCn1cc(-n2c(C)c(Sc3cccc(CC(=O)NS(C)(=O)=O)c3)c3ccc(Cl)cc32)cn1 [Compound 3-53, N-(2-{3-[6-Chloro-2-methyl-1-(1-propyl-1H-pyrazol-4-yl)-1H-indol-3-ylsulfanyl]-phenyl}-acetyl)-methanesulfonamide] | < 300 |

| Compound | IC50 [nM] |
| --- | --- |
| CCCn1cc(-n2c(C)c(Sc3cccc(CC(=O)NS(=O)(=O)C4CC4)c3)c3ccc(Cl)cc32)cn1 [Compound 3-54, cyclopropanesulfonic acid (2-{3-[6-chloro-2-methyl-1-(1-propyl-1H-pyrazol-4-yl)-1H-indol-3-ylsulfanyl]-phenyl}-acetyl)-amide] | < 300 |
| CCCn1cc(-n2c(C)c(Sc3cccc(CC(=O)NS(=O)(=O)c4ccccc4)c3)c3ccc(Cl)cc32)cn1 [Compound 3-55, N-(2-{3-[6-Chloro-2-methyl-1-(1-propyl-1H-pyrazol-4-yl)-1H-indol-3-ylsulfanyl]-phenyl}-acetyl)-benzenesulfonamide] | < 300 |
| Cc1c(Sc2cccc(C(=O)O)c2)c2ccc(Cl)c(F)c2n1-c1cnn(C(C)C)c1 [Compound 3-56, 3-[6-Chloro-7-fluoro-1-(1-isopropyl-1H-pyrazol-4-yl)-2-methyl-1H-indol-3-ylsulfanyl]-benzoic acid] | < 300 |
| Cc1c(Sc2cccc(C(=O)O)c2)c2ccc(Cl)c(F)c2n1-c1cnn(C)c1 [Compound 3-57, 3-[6-Chloro-7-fluoro-2-methyl-1-(1-methyl-1H-pyrazol-4-yl)-1H-indol-3-ylsulfanyl]-benzoic acid] | < 300 |
| CCn1ccc(-n2c(C)c(Sc3cccc(C(=O)O)c3)c3ccc(Cl)c(F)c32)n1 [Compound 3-58, 3-[6-Chloro-1-(1-ethyl-1H-pyrazol-3-yl)-7-fluoro-2-methyl-1H-indol-3-ylsulfanyl]-benzoic acid] | 300 to 1000 |
| Cc1c(Sc2cccc(C(=O)O)c2)c2ccc(Cl)c(F)c2n1-c1cnn(C(C)(C)C)c1 [Compound 3-60, 3-[1-(1-tert-Butyl-1H-pyrazol-4-yl)-6-chloro-7-fluoro-2-methyl-1H-indol-3-ylsulfanyl]-benzoic acid] | < 300 |
| Cc1cc(-n2c(C)c(Sc3cccc(C(=O)O)c3)c3ccc(Cl)c(F)c32)cs1 [Compound 3-61, 3-[6-Chloro-7-fluoro-2-methyl-1-(5-methyl-thiophen-3-yl)-1H-indol-3-ylsulfanyl]-benzoic acid] | < 300 |
| Cc1ccc(-n2c(C)c(Sc3cccc(C(=O)O)c3)c3ccc(Cl)c(F)c32)s1 [Compound 3-62, 3-[6-Chloro-7-fluoro-2-methyl-1-(5-methyl-thiophen-2-yl)-1H-indol-3-ylsulfanyl]-benzoic acid] | 300 to 1000 |
| CCn1cc(-n2c(C)c(Sc3cc(F)cc(C(=O)O)c3)c3ccc(Cl)c(F)c32)cn1 [Compound 4-2, 3-[6-Chloro-1-(1-ethyl-1H-pyrazol-4-yl)-7-fluoro-2-methyl-1H-indol-3-ylsulfanyl]-5-fluoro-benzoic acid] | < 300 |
| CCn1cc(-n2c(C)c(Sc3cccc(C(=O)O)c3F)c3ccc(Cl)c(F)c32)cn1 [Compound 4-3, 3-[6-Chloro-1-(1-ethyl-1H-pyrazol-4-yl)-7-fluoro-2-methyl-1H-indol-3-ylsulfanyl]-2-fluoro-benzoic acid] | < 300 |
| CCCn1cc(-n2c(C)c(Sc3cccc(C(=O)O)c3F)c3ccc(Cl)c(F)c32)cn1 [Compound 4-4, 3-[6-Chloro-7-fluoro-2-methyl-1-(1-propyl-1H-pyrazol-4-yl)-1H-indol-3-ylsulfanyl]-2-fluoro-benzoic acid] | < 300 |
| CCCn1cc(-n2c(C)c(Sc3cc(F)cc(C(=O)O)c3)c3ccc(Cl)c(F)c32)cn1 [Compound 4-5, 3-[6-Chloro-7-fluoro-2-methyl-1-(1-propyl-1H-pyrazol-4-yl)-1H-indol-3-ylsulfanyl]-5-fluoro-benzoic acid] | < 300 |
| Cc1c(Sc2cc(F)cc(C(=O)O)c2)c2ccc(Cl)c(F)c2n1-c1cnn(C(C)C)c1 [Compound 4-6, 3-[6-Chloro-7-fluoro-1-(1-isopropyl-1H-pyrazol-4-yl)-2-methyl-1H-indol-3-ylsulfanyl]-5-fluoro-benzoic acid] | < 300 |
| CCn1cc(-n2c(C)c(Sc3cccc(C(=O)NS(=O)(=O)c4ccccc4)c3F)c3ccc(Cl)c(F)c32)cn1 [Compound 4-7, N-{3-[6-Chloro-1-(1-ethyl-1H-pyrazol-4-yl)-7-fluoro-2-methyl-1H-indol-3-ylsulfanyl]-2-fluoro-benzoyl}-benzenesulfonamide] | < 300 |
| CCCn1cc(-n2c(C)c(Sc3cccc(C(=O)NS(=O)(=O)c4ccccc4)c3F)c3ccc(Cl)c(F)c32)cn1 [Compound 4-8, N-{3-[6-Chloro-1-(1-propyl-1H-pyrazol-4-yl)-7-fluoro-2-methyl-1H-indol-3-ylsulfanyl]-2-fluoro-benzoyl}-benzenesulfonamide] | < 300 |
| CCn1cc(-n2c(C)c(Sc3ccc(C)c(C(=O)O)c3)c3ccc(Cl)c(F)c32)cn1 [Compound 4-9, 5-[6-Chloro-1-(1-ethyl-1H-pyrazol-4-yl)-7-fluoro-2-methyl-1H-indol-3-ylsulfanyl]-2-methyl-benzoic acid] | < 300 |

From patent publication US9000025B2, “Autotaxin inhibitors and uses thereof” (Amira Pharmaceuticals, Inc., priority 2010, dated 2015)
